Non-standard residues stand in square brackets, D forms with d. Residues, ends and D or L forms follow the SMILES beside them. *: point of attachment. Nva(4-oxo) = CC(=O)C[C@H](N)C(=O)O; 2Pal = N[C@@H](Cc1ccccn1)C(=O)O; 4Pal = N[C@@H](Cc1ccncc1)C(=O)O; Tos = Cc1ccc(S(=O)(=O)*)cc1; Nva = CCC[C@H](N)C(=O)O
Each molecule was assayed against T1, Neuropeptide S receptor (Mus musculus) (UniProt Q8BZP8) (assay: Agonist activity at mouse NPSR expressed in HEK293 cells assessed as increase in intracellular calcium mobilization at 10 uM by FLIPR).
T1 sequence (whole entry): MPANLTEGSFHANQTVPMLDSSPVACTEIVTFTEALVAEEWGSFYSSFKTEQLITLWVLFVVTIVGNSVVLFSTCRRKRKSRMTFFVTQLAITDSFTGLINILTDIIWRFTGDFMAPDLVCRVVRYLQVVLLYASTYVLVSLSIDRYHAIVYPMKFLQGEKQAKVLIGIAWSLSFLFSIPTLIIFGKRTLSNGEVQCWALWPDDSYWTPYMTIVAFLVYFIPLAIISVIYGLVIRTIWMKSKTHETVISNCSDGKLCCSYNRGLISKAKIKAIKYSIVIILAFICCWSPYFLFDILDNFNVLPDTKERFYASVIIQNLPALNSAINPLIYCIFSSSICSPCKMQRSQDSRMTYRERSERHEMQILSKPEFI
Assay type: functional, cell-based
Work on `CSCC[C@H](NC(=O)CNC(=O)[C@@H](NC(=O)CNC(=O)[C@@H](NC(=O)CNC(=O)[C@H](CC(=O)N(C)C)NC(=O)[C@H](CCCNC(=N)N)NC(=O)[C@H](Cc1ccccc1)NC(=O)[C@@H](N)CO)C(C)C)[C@@H](C)O)C(=O)N[C@@H](CCCCN)C(=O)N[C@@H](CCCCN)C(=O)N[C@H](C(=O)N[C@@H](CO)C(=O)N[C@@H](Cc1ccccc1)C(=O)N[C@@H](CCC(N)=O)C(=O)N[C@@H](CCCNC(=N)N)C(=O)N[C@@H](C)C(=O)N[C@@H](CCCCN)C(=O)N[C@@H](CO)C(=O)O)[C@@H](C)O` (H-SFRD(NMe2)GVGTGMKKTSFQRAKS-OH) yielded an Activity of 89%. `CSCC[C@H](NC(=O)CNC(=O)[C@@H](NC(=O)CNC(=O)[C@@H](NC(=O)CNC(=O)[C@H](CC(C)=O)NC(=O)[C@H](CCCNC(=N)N)NC(=O)[C@H](Cc1ccccc1)NC(=O)[C@@H](N)CO)C(C)C)[C@@H](C)O)C(=O)N[C@@H](CCCCN)C(=O)N[C@@H](CCCCN)C(=O)N[C@H](C(=O)N[C@@H](CO)C(=O)N[C@@H](Cc1ccccc1)C(=O)N[C@@H](CCC(N)=O)C(=O)N[C@@H](CCCNC(=N)N)C(=O)N[C@@H](C)C(=O)N[C@@H](CCCCN)C(=O)N[C@@H](CO)C(=O)O)[C@@H](C)O` (H-SFR[Nva(4-oxo)]GVGTGMKKTSFQRAKS-OH) was tested, and the Activity was 136%. Work on H-SFRDGVGTGMKKTSFQRAKS-OH yielded an Activity of 146%. Molecule `CNC(=O)C[C@H](NC(=O)[C@H](CCCNC(=N)N)NC(=O)[C@H](Cc1ccccc1)NC(=O)[C@@H](N)CO)C(=O)NCC(=O)N[C@H](C(=O)NCC(=O)N[C@H](C(=O)NCC(=O)N[C@@H](CCSC)C(=O)N[C@@H](CCCCN)C(=O)N[C@@H](CCCCN)C(=O)N[C@H](C(=O)N[C@@H](CO)C(=O)N[C@@H](Cc1ccccc1)C(=O)N[C@@H](CCC(N)=O)C(=O)N[C@@H](CCCNC(=N)N)C(=O)N[C@@H](C)C(=O)N[C@@H](CCCCN)C(=O)N[C@@H](CO)C(=O)O)[C@@H](C)O)[C@@H](C)O)C(C)C` (H-SFRD(NHMe)GVGTGMKKTSFQRAKS-OH) has an Activity of 188%. In the case of H-SFYNGVGTGMKKTSFQRAKS-OH, the Activity was 73%. Molecule `CSCC[C@H](NC(=O)CNC(=O)[C@@H](NC(=O)CNC(=O)[C@@H](NC(=O)CNC(=O)[C@H](CC(N)=O)NC(=O)[C@H](CCCNC(=N)NS(=O)(=O)c1ccc(C)cc1)NC(=O)[C@H](Cc1ccccc1)NC(=O)[C@@H](N)CO)C(C)C)[C@@H](C)O)C(=O)N[C@@H](CCCCN)C(=O)N[C@@H](CCCCN)C(=O)N[C@H](C(=O)N[C@@H](CO)C(=O)N[C@@H](Cc1ccccc1)C(=O)N[C@@H](CCC(N)=O)C(=O)N[C@@H](CCCNC(=N)N)C(=O)N[C@@H](C)C(=O)N[C@@H](CCCCN)C(=O)N[C@@H](CO)C(=O)O)[C@@H](C)O` (H-SFR(Tos)NGVGTGMKKTSFQRAKS-OH) has an Activity of 104%. Work on H-SFLNGVGTGMKKTSFQRAKS-OH yielded an Activity of 36%. In the case of `CSCC[C@H](NC(=O)CNC(=O)[C@@H](NC(=O)CNC(=O)[C@@H](NC(=O)CNC(=O)[C@H](CC(N)=O)NC(=O)[C@H](Cc1ccncc1)NC(=O)[C@H](Cc1ccccc1)NC(=O)[C@@H](N)CO)C(C)C)[C@@H](C)O)C(=O)N[C@@H](CCCCN)C(=O)N[C@@H](CCCCN)C(=O)N[C@H](C(=O)N[C@@H](CO)C(=O)N[C@@H](Cc1ccccc1)C(=O)N[C@@H](CCC(N)=O)C(=O)N[C@@H](CCCNC(=N)N)C(=O)N[C@@H](C)C(=O)N[C@@H](CCCCN)C(=O)N[C@@H](CO)C(=O)O)[C@@H](C)O` (H-SF[4Pal]NGVGTGMKKTSFQRAKS-OH), the Activity was 154%. In the case of `CCC[C@H](NC(=O)[C@H](CCCNC(=N)N)NC(=O)[C@H](Cc1ccccc1)NC(=O)[C@@H](N)CO)C(=O)NCC(=O)N[C@H](C(=O)NCC(=O)N[C@H](C(=O)NCC(=O)N[C@@H](CCSC)C(=O)N[C@@H](CCCCN)C(=O)N[C@@H](CCCCN)C(=O)N[C@H](C(=O)N[C@@H](CO)C(=O)N[C@@H](Cc1ccccc1)C(=O)N[C@@H](CCC(N)=O)C(=O)N[C@@H](CCCNC(=N)N)C(=O)N[C@@H](C)C(=O)N[C@@H](CCCCN)C(=O)N[C@@H](CO)C(=O)O)[C@@H](C)O)[C@@H](C)O)C(C)C` (H-SFR[Nva]GVGTGMKKTSFQRAKS-OH), the Activity was 240%. In the case of H-SFRFGVGTGMKKTSFQRAKS-OH, the Activity was 118%. In the case of H-SFSNGVGTGMKKTSFQRAKS-OH, the Activity was 175%. In the case of `CSCC[C@H](NC(=O)CNC(=O)[C@@H](NC(=O)CNC(=O)[C@@H](NC(=O)CNC(=O)[C@H](CC(N)=O)NC(=O)[C@H](Cc1ccccn1)NC(=O)[C@H](Cc1ccccc1)NC(=O)[C@@H](N)CO)C(C)C)[C@@H](C)O)C(=O)N[C@@H](CCCCN)C(=O)N[C@@H](CCCCN)C(=O)N[C@H](C(=O)N[C@@H](CO)C(=O)N[C@@H](Cc1ccccc1)C(=O)N[C@@H](CCC(N)=O)C(=O)N[C@@H](CCCNC(=N)N)C(=O)N[C@@H](C)C(=O)N[C@@H](CCCCN)C(=O)N[C@@H](CO)C(=O)O)[C@@H](C)O` (H-SF[2Pal]NGVGTGMKKTSFQRAKS-OH), the Activity was 19%.

From ChEMBL document CHEMBL1152211, “Structure-activity study at positions 3 and 4 of human neuropeptide S” (Bioorg Med Chem, 2008)
